Assay results: patent US20230312616A1, “MODULATORS OF CYSTIC FIBROSIS TRANSMEMBRANE CONDUCTANCE REGULATOR” (priority 2018, published 2023)

Each molecule was assayed on CFTR (assay: CFTR modulating activity, generated using one or more of the assays disclosed (e.g. membrane potential dye assay in enteroid cells)). Conditions: one or more of the assays disclosed herein; qualitative (Active / ND).
Type: cell-based, human
Description: Human intestinal epithelial enteroid cells may be obtained from the Hubrecht Institute for Developmental Biology and Stem Cell Research, Utrecht, The Netherlands and expanded in T-Flasks as previously described (Dekkers JF, Wiegerinck CL, de Jonge HR, Bronsveld I, Janssens HM, de Winter-de Groot KM, Brandsma AM, de Jong NWM, Bijvelds MJC, Scholte BJ, Nieuwenhuis EES, van den Brink S, Clevers H, van der Ent CK, Middendorp S and M Beekman JM. A functional CFTR assay using primary cystic fibrosis intestinal organoids. Nat Med. 2013 Jul;19(7):939-45.).
Cells may be recovered in cell recovery solution, collected by centrifugation at 650 rpm for 5 min at 4° C., resuspended in TryPLE and incubated for 5 min at 37° C. Cells can then be collected by centrifugation at 650 rpm for 5 min at 4° C. and resuspended in IEMM containing 10 µM ROCK inhibitor (RI). The cell suspension is then passed through a 40 µm cell strainer and resuspended at 1x10^6 cells/mL in IEMM containing 10 µM RI. Cells may be seeded at 5000 cells/well into multi-well plates and incubated for overnight at 37° C., 95% humidity and 5% CO2 prior to assay.
Enteroid cells may be incubated with test compound in IEMM for 18-24 hours at 37° C., 95% humidity and 5% CO2. Following compound incubations, a membrane potential dye assay can be employed using a FLIPR Tetra to directly measure the potency and efficacy of the test compound on CFTR-mediated chloride transport following acute addition of 10 µM forskolin and 300 nM N-[2,4-bis(1,1-dimethylethyl)-5-hydroxyphenyl]-1,4-dihydro-4-oxoquinoline-3-carboxamide. Briefly, cells aree washed 5 times in Bath 1 Buffer. Bath 1 Dye Solution is added and the cells are incubated for 25 min at room temperature. Following dye incubation, cells are washed 3 times in Chloride Free Dye Solution. Chloride transport is initiated by addition of Chloride Free Dye Stimulation Solution and the fluorescence signal is read for 15 min. The CFTR-mediated chloride transport for each condition may be determined from the AUC of the fluorescence response to acute forskolin and 300 nM N-[2,4-bis(1,1-dimethylethyl)-5-hydroxyphenyl]-1,4-dihydro-4-oxoquinoline-3-carboxamide stimulation.
Chloride transport may be expressed as a percentage of the chloride transport following treatment with one or more reference standards or positive controls. Suitable reference standards/controls include one or more of Compound II, Compound III, Compound IV, and Compound A. Compound A is:
Table 6 confirms CFTR modulating activity for representative compounds of the invention generated using one or more of the assays disclosed herein.
C[C@@H]1CN(c2nc([Si](C)(C)CCC(C)(C)C)ccc2C(=O)NS(=O)(=O)c2ccccc2)C(C)(C)C1 [Compound 2-3, N-(benzenesulfonyl)-6-[3,3-dimethylbutyl(dimethyl)silyl]-2-[(4S)-2,2,4-trimethylpyrrolidin-1-yl]pyridine-3-carboxamide] was tested, and the “CFTR Modulating Activity” value was “Active”. For C[C@@H]1CN(c2nc(-n3ccc(OCCC4(C(F)(F)F)CC4)n3)c([Si](C)(C)C)cc2C(=O)NS(=O)(=O)c2ccccc2)C(C)(C)C1 [Compound 2-1, N-(Benzenesulfonyl)-6-[3-[2-[1-(Trifluoromethyl)Cyclopropyl]Ethoxy]Pyrazol-1-yl]-2-[(4S)-2,2,4-trimethylpyrrolidin-1-yl]-5-trimethylsilyl-pyridine-3-carboxamide], the “CFTR Modulating Activity” value was “Active”. C[C@@H]1CN(c2nc(-n3ccc(OCC(C)(C)C(F)(F)F)n3)ccc2C(=O)NS(=O)(=O)c2cccc([Si](C)(C)C)c2)C(C)(C)C1 [Compound 2-16, 6-[3-(3,3,3-trifluoro-2,2-dimethyl-propoxy)pyrazol-1-yl]-2-[(4S)-2,2,4-trimethylpyrrolidin-1-yl]—N—(3-trimethylsilylphenyl)sulfonyl-pyridine-3-carboxamide] was tested, and the “CFTR Modulating Activity” value was “Active”. In the case of C[C@@H]1CN(c2nc(-n3ccc(OCCC4([Si](C)(C)C)CC4)n3)ccc2C(=O)NS(=O)(=O)c2ccccc2)C(C)(C)C1 [Compound 2-6, N-(Benzenesulfonyl)-2-[(4S)-2,2,4-trimethylpyrrolidin-1-yl]-6-[3-[2-(1-trimethylsilylcyclopropyl)Ethoxy]Pyrazol-1-yl] Pyridine-3-carboxamide], the “CFTR Modulating Activity” value is reported as “Active”. With C[C@@H]1CN(c2nc(-n3ccc(OC[Si](C)(C)C)n3)ccc2C(=O)NS(=O)(=O)c2ccccc2)C(C)(C)C1 [Compound 2-11, N-(Benzenesulfonyl)-2-[(4S)-2,2,4-trimethylpyrrolidin-1-yl]-6-[3-(Trimethylsilylmethoxy)Pyrazol-1-yl]Pyridine-3-carboxamide] the “CFTR Modulating Activity” value was “Active”. With C[C@@H]1CN(c2nc(-n3ccc(OCCC[Si](C)(C)C)n3)ccc2C(=O)NS(=O)(=O)c2ccccc2)C(C)(C)C1 [Compound 2-9, N-(Benzenesulfonyl)-2-[(4S)-2,2,4-trimethylpyrrolidin-1-yl]-6-[3-(3-trimethylsilylpropoxy)Pyrazol-1-yl]Pyridine-3-carboxamide] the “CFTR Modulating Activity” value was “Active”. With C[C@@H]1CN(c2nc(-n3ccc([Si](C)(C)C(C)(C)C)n3)ccc2C(=O)NS(=O)(=O)c2ccccc2)C(C)(C)C1 [Compound 2-14, N-(benzenesulfonyl)-6-[3-[Tert-butyl(Dimethyl)Silyl]Pyrazol-1-yl]-2-[(4S)-2,2,4-trimethylpyrrolidin-1-yl]Pyridine-3-carboxamide] the “CFTR Modulating Activity” value was “Active”. With C[C@@H]1CN(c2nc(-n3ccc(OCC[Si](C)(C)C)n3)ccc2C(=O)NS(=O)(=O)c2ccccc2)C(C)(C)C1 [Compound 2-7, N-(Benzenesulfonyl)-2-[(4S)-2,2,4-trimethylpyrrolidin-1-yl]-6-[3-(2-trimethylsilylethoxy)Pyrazol-1-yl]Pyridine-3-carboxamide] the “CFTR Modulating Activity” value was “Active”. With C[C@@H]1CN(c2nc(-n3ccc([Si](C)(C)CCC(F)(F)F)n3)ccc2C(=O)NS(=O)(=O)c2ccccc2)C(C)(C)C1 [Compound 2-12, N-(Benzenesulfonyl)-6-[3-[Dimethyl(3,3,3-trifluoropropyl)Silyl]Pyrazol-1-yl]-2-[(4S)-2,2,4-trimethylpyrrolidin-1-yl]Pyridine-3-carboxamide] the “CFTR Modulating Activity” value was “Active”. With CC1(C)CC([Si](C)(C)C)CN1c1nc(-n2ccc(OCCC3(C(F)(F)F)CC3)n2)ccc1C(=O)NS(=O)(=O)c1ccccc1 (single isomer, unassigned) [2-13 Enantiomer 1, N-(Benzenesulfonyl)-2-(2,2-dimethyl-4-trimethylsilyl-pyrrolidin-1-yl)-6-[3-[2-[1-(Trifluoromethyl)Cyclopropyl]Ethoxy]Pyrazol-1-yl]Pyridine-3-carboxamide] the “CFTR Modulating Activity” value was “Active”. In the case of C[C@@H]1CN(c2nc([Si](C)(C)C)ccc2C(=O)NS(=O)(=O)c2ccccc2)C(C)(C)C1 [Compound 2-8, N-(Benzenesulfonyl)-2-[(4S)-2,2,4-trimethylpyrrolidin-1-yl]-6-trimethylsilyl-pyridine-3-carboxamide], the “CFTR Modulating Activity” value is reported as “Active”. C[C@@H]1CN(c2nc(-n3ccc([Si](C)(C)CCC(C)(C)C)n3)ccc2C(=O)NS(=O)(=O)c2ccccc2)C(C)(C)C1 [Compound 2-5, N-(Benzenesulfonyl)-6-[3-[3,3-dimethylbutyl(Dimethyl)Silyl]Pyrazol-1-yl]-2-[(4S)-2,2,4-trimethylpyrrolidin-1-yl]Pyridine-3-carboxamide] was tested, and the “CFTR Modulating Activity” value was “Active”. With C[C@@H]1CN(c2nc(-n3ccc(OCCC4(C(F)(F)F)CC4)n3)ccc2C(=O)NS(=O)(=O)c2ccccc2)C(C)([Si](C)(C)C)C1 (single isomer, unassigned) [2-10 Isomer 2] the “CFTR Modulating Activity” value was “Active”. Cc1ccc([Si](C)(C)c2ccc(C(=O)NS(=O)(=O)c3ccccc3)c(N3C[C@@H](C)CC3(C)C)n2)cc1 [Compound 2-4, N-(Benzenesulfonyl)-6-[Dimethyl(p-tolyl)Silyl]-2-[(4S)-2,2,4-trimethylpyrrolidin-1-yl]pyridine-3-carboxamide] was tested, and the “CFTR Modulating Activity” value was “Active”. For C[C@@H]1CN(c2nc([Si](C)(C)c3ccccc3)ccc2C(=O)NS(=O)(=O)c2ccccc2)C(C)(C)C1 [Compound 2-2, N-(Benzenesulfonyl)-6-[Dimethyl(Phenyl)Silyl]-2-[(4S)-2,2,4-trimethylpyrrolidin-1-yl]Pyridine-3-carboxamide], the “CFTR Modulating Activity” value was “Active”. With C[C@@H]1CN(c2nc(-n3ccc(OCCC4(C(F)(F)F)CC4)n3)ccc2C(=O)NS(=O)(=O)c2cccc([Si](C)(C)C)c2)C(C)(C)C1 [Compound 2-17, 6-[3-[2-[1-(Trifluoromethyl)Cyclopropyl]Ethoxy]Pyrazol-1-yl]-2-[(4S)-2,2,4-trimethylpyrrolidin-1-yl]-N-(3-trimethylsilylphenyl)Sulfonyl-pyridine-3-carboxamide] the “CFTR Modulating Activity” value was “Active”. For C[C@@H]1CN(c2nc(-n3ccc([Si](C)(C)C)n3)ccc2C(=O)NS(=O)(=O)c2ccccc2)C(C)(C)C1 [Compound 2-18, N-(benzenesulfonyl)-2-[(4S)-2,2,4-trimethylpyrrolidin-1-yl]-6-(3-trimethylsilylpyrazol-1-yl)pyridine-3-carboxamide], the “CFTR Modulating Activity” value was “Active”. For C[C@@H]1CN(c2nc(-n3ccc(OC[Si](C)(C)C(C)(C)C)n3)ccc2C(=O)NS(=O)(=O)c2ccccc2)C(C)(C)C1 [Compound 2-15, N-(Benzenesulfonyl)-6-[3-[[tert-butyl(dimethyl)silyl]methoxy]pyrazol-1-yl]-2-[(4S)-2,2,4-trimethylpyrrolidin-1-yl]pyridine-3-carboxamide], the “CFTR Modulating Activity” value was “Active”.
